The values that follow come from US20240199613A1 (TAKEDA PHARMACEUTICAL COMPANY LIMITED, priority 2021, published 2024).

Assay [1] deals with human activated kallikrein enzyme (Homo sapiens, UniProt P03952). Description: Inhibition of activated plasma kallikrein, fluorogenic peptide substrate (PFR-AMC) assay, 500 pM enzyme format. The assay is classed as biochemical. Conditions: 500 pM activated kallikrein, 300 uM PFR-AMC, 30 min preincubation, 10 min reaction, room temperature; read-out: Primary Dose Response Assay: Average EC50. The method, then:
Compounds were evaluated for inhibition of the human activated kallikrein enzyme in two formats of an assay employing a fluorogenic peptide substrate. In one assay format, the concentrations of reagents were as follows: 20 mM Tris pH 7.5, 1 mM EDTA, 150 mM sodium chloride, 0.1% PEG-400, 0.1% Triton X-100, 500 pM activated kallikrein enzyme, 300 uM Pro-Phe-Arg-7-amido-4-methylcoumarin (PFR-AMC) substrate. Prior to reaction initiation with substrate, enzyme and inhibitors were preincubated for 30 min at room temperature. After initiation with substrate, reactions were incubated for 10 min at room temperature and fluorescence emission at 460 nm from 380 nm excitation measured with a microplate reader. In another assay format, the concentrations of reagents were as follows: 20 mM Tris pH 7.5, 1 mM EDTA, 150 mM sodium chloride, 0.1% PEG-400, 0.1% Triton X-100, 5 pM activated kallikrein enzyme, 300 uM PFR-AMC substrate. Prior to reaction initiation with substrate, enzyme and inhibitors were preincubated for 30 min at room temperature. After initiation with substrate, reactions were incubated for 18 hr at room temperature and fluorescence emission at 460 nm from 380 nm excitation measured with a microplate reader.
Table 6 provides the results of the assay in the format with 500 pM activated kallikrein assay.

Assay [2] concerns the target T1, plasma kallikrein (Homo sapiens, UniProt P03952).
T1 construct: from tissue; host or cells: sodium citrate collected human plasma (78% final)
The experiment in a line: Neat human plasma assay: contact pathway-activated (FXIIa) plasma, PFR-AMC substrate. The conditions noted are these: citrated human plasma (78% final), 10 nM human FXIIa, 100 μM PFR-AMC, room temperature. The assay is classed as biochemical. The method, then: To analyze inhibition of plasma kallikrein in an ex vivo setting, the potency of compounds was measure in contact pathway-activated plasma assays. In a fluorogenic peptide substrate assay, test compounds dissolved in DMSO were added to sodium citrate collected human or rat plasma in a 96-well microplate. Alternatively, citrated plasma was collected from rats administered the compounds orally or by IV. 10 nM of human FXIIa (Enzyme Research Laboratories) diluted in pKal buffer (20 mM Tris-HCl, pH 7.5, 150 mM NaCl, 1 mM EDTA, 0.1% PEG-8000, and 0.1% Triton X-100) was added to the plasma, followed by the 100 μM of the profluorescent, synthetic plasma kallikrein substrate PFR-AMC (also diluted in pKal buffer). Final plasma concentration in the reaction was 78%. Fluorescence was immediately monitored by excitation/emission wavelengths of 360 nm/480 nm respectively over a period of 5 minutes in a microplate reader. The resulting linear increase in fluorescence emission (reflecting pKal proteolysis of PFR-AMC substrate) was fit to extract a proteolytic rate (fluorescent units over time), and this rate was subsequently plotted against compound inhibitor concentration. Resulting plots were fit to a standard 4-parameter IC50/IC90 equation to determine min/max values, IC50/90, and slope. All experimental steps were performed at room temperature.

Molecules are shown by their SMILES. A value given as a limit tells only on which side of the number the result lay.

T1 sequence (P03952 391-638 limits assumed): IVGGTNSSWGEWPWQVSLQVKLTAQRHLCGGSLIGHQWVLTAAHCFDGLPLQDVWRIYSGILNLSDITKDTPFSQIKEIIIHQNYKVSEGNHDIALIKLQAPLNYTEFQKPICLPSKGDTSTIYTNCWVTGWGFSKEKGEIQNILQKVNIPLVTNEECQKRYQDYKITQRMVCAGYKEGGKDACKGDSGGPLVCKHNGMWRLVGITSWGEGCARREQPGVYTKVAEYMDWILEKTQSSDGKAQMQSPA
T1 sequence (P03952 20-390 partner limits assumed): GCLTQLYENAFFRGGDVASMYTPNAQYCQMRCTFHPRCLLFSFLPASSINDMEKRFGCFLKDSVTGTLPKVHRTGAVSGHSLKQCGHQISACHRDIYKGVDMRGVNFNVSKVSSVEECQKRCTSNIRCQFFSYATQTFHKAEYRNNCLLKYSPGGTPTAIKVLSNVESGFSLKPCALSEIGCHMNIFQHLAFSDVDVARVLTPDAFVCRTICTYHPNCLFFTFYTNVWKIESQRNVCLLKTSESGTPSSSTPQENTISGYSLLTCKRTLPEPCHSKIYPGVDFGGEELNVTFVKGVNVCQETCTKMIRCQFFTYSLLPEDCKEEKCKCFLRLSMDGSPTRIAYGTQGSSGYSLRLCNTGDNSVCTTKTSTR
Chain of human activated kallikrein enzyme (P03952 391-638 limits assumed): as the sequence (P03952 391-638 limits assumed) above
Chain of human activated kallikrein enzyme (P03952 20-390 partner limits assumed): as the sequence (P03952 20-390 partner limits assumed) above

As to `Cc1ccnc([C@H]2C[C@@H]2c2cc(-n3cncn3)c3ccc(NCc4cn5cc(C6CC6)cc(N6CC(=O)N(C)C6=O)c5n4)cc3n2)n1` (racemic) [Example 26, rac-1-(6-cyclopropyl-2-(((2-((1S*,2S*)-2-(4-methylpyrimidin-2-yl)cyclopropyl)-4-(1H-1,2,4-triazol-1-yl)quinolin-7-yl)amino)methyl)imidazo[1,2-a]pyridin-8-yl)-3-methylimidazolidine-2,4-dione], the EC50 in assay [1] was 1 to 10 nM. Also, the IC90 in assay [2] is 1500 to 10000 nM.
The like results for `Cc1ccnc([C@H]2C[C@@H]2C2=CS(=O)(=O)c3ccc(NCc4cn5cc(C6CC6)ccc5n4)cc3N2)n1` (racemic) [Example 55, rac-6-(((6-cyclopropylimidazo[1,2-a]pyridin-2 yl)methyl)amino)-3-((1S*,2S*)-2-(4-methylpyrimidin-2-yl)cyclopropyl)-4H-benzo[b][1,4]thiazine 1,1-dioxide] were, in that order, ≤ 1 nM and 1500 to 10000 nM.
As for `COc1cc(NCc2cn3cc(C)cc(N4CC(=O)N(C)C4=O)c3n2)cc2nc([C@H]3C[C@@H]3c3nccc(C)n3)ccc12` (racemic) [Example 104, rac-1-(2-(((5-methoxy-2-((1S*,2S*)-2-(4-methylpyrimidin-2-yl)cyclopropyl)quinolin-7-yl)amino)methyl)-6-methylimidazo[1,2-a]pyridin-8-yl)-3-methylimidazolidine-2,4-dione], the concentration for a half-maximal effect (EC50) in assay [1] lay within 1 to 10 nM. In assay [2], this compound had a concentration for an effect of 90% (IC90) of 400 to 1500 nM.
The like results for `Cc1ccnc([C@H]2C[C@@H]2c2nc3cc(NCc4cn5cc(C6CC6)cc(N6CC(=O)N(C)C6=O)c5n4)ncc3c(=O)[nH]2)n1` (racemic) [Example 7, rac-1-(6-cyclopropyl-2-(((2-((1S*,2S*)-2-(4-methylpyrimidin-2-yl)cyclopropyl)-4-oxo-3,4-dihydropyrido[4,3-d]pyrimidin-7-yl)amino)methyl)imidazo[1,2-a]pyridin-8-yl)-3-methylimidazolidine-2,4-dione] were, in that order, ≤ 1 nM and 400 to 1500 nM.
Regarding `Cc1ccnc([C@H]2C[C@@H]2C2=NS(=O)(=O)c3cc4c(cc3N2)N(Cc2cn3cc(C5CC5)ccc3n2)CCO4)n1` [Example 93, 6-((6-cyclopropylimidazo[1,2-a]pyridin-2-yl)methyl)-3-((1S,2S)-2-(4-methylpyrimidin-2-yl)cyclopropyl)-7,8-dihydro-4H,6H-[1,4]oxazino[2′,3′:4,5]benzo[1,2-e][1,2,4]thiadiazine 1,1-dioxide], the EC50 in assay [1] was ≤ 1 nM. For the same compound, the IC90 in assay [2] is 1500 to 10000 nM.
Regarding `Cc1ccnc([C@H]2C[C@@H]2c2cc(N3CC4(COC4)C3)c3ccc(NC(C)c4cn5cc(C6CC6)cc(N6CC(=O)N(C)C6=O)c5n4)cc3n2)n1` (stereo partly drawn) [Example 99, 1-(6-cyclopropyl-2-(1-((2-((1S,2S)-2-(4-methylpyrimidin-2-yl)cyclopropyl)-4-(2-oxa-6-azaspiro[3.3]heptan-6-yl)quinolin-7-yl)amino)ethyl)imidazo[1,2-a]pyridin-8-yl)-3-methylimidazolidine-2,4-dione], the EC50 in assay [1] is 1 to 10 nM. Moreover, the 90% effect concentration (IC90) in assay [2] lay in the range of 400 to 1500 nM.
In the same order, the values of `Cc1ccnc([C@H]2C[C@@H]2c2cc(NCC(C)(C)O)c3ccc(OCc4cn5cc(C6CC6)cc(N6CC(=O)N(C)C6=O)c5n4)cc3n2)n1` [Example 97, 1-(6-cyclopropyl-2-(((4-((2-hydroxy-2-methylpropyl)amino)-2-((1S,2S)-2-(4-methylpyrimidin-2-yl)cyclopropyl)quinolin-7-yl)oxy)methyl)imidazo[1,2-a]pyridin-8-yl)-3-methylimidazolidine-2,4-dione] are ≤ 1 nM and ≤ 400 nM.
In the same order, the values of `Cc1ccnc([C@H]2C[C@@H]2C2=NS(=O)(=O)c3cc(Cl)c(NCc4cn5cc(C6CC6)ccc5n4)cc3N2)n1` (racemic) [Example 89, rac-7-chloro-6-(((6-cyclopropylimidazo[1,2-a]pyridin-2-yl)methyl)amino)-3-((1S*,2S*)-2-(4-methylpyrimidin-2-yl)cyclopropyl)-4H-benzo[e][1,2,4]thiadiazine 1,1-dioxide] are ≤ 1 nM and 1500 to 10000 nM.
In the same order, the values of `CNc1cc([C@H]2C[C@@H]2c2nccc(C)n2)nc2cc(NCc3cn4cc(C5CC5)cc(N5CC(=O)N(C)C5=O)c4n3)ccc12` (racemic) [Example 32, rac-1-(6-cyclopropyl-2-(((4-(methylamino)-2-((1S*,2S*)-2-(4-methylpyrimidin-2-yl)cyclopropyl)quinolin-7-yl)amino)methyl)imidazo[1,2-a]pyridin-8-yl)-3-methylimidazolidine-2,4-dione] are ≤ 1 nM and ≤ 400 nM.
`Cc1ccnc([C@H]2C[C@@H]2C2=CS(=O)(=O)c3ccc(NCc4cn5cc(C6CC6)cc(N6CC(=O)N(C)C6=O)c5n4)cc3N2)n1` (racemic) [Example 61, rac-1-(6-cyclopropyl-2-(((3-((1S*,2S*)-2-(4-methylpyrimidin-2-yl)cyclopropyl)-1,1-dioxido-4H-benzo[b][1,4]thiazin-6-yl)amino)methyl)imidazo[1,2-a]pyridin-8-yl)-3-methylimidazolidine-2,4-dione]: in assay [1], the concentration for a half-maximal effect (EC50) was ≤ 1 nM. Besides, in assay [2], the IC90 lay in the range of 400 to 1500 nM.
In the case of `Cc1ccnc([C@H]2C[C@@H]2c2cnc3ccc(NCc4cn5cc(C6CC6)cc(N6CC(=O)N(C)C6=O)c5n4)cc3n2)n1` (racemic) [Example 62, rac-1-(6-cyclopropyl-2-(((3-((1S*,2S*)-2-(4-methylpyrimidin-2-yl)cyclopropyl)quinoxalin-6-yl)amino)methyl)imidazo[1,2-a]pyridin-8-yl)-3-methylimidazolidine-2,4-dione], the EC50 in assay [1] is 100 to 6500 nM.
Take `COc1cc([C@H]2C[C@@H]2c2cccc(Cl)c2)nc2cc(N(Cc3cn4cc(C5CC5)ccc4n3)C(=O)OC(C)(C)C)ccc12` (racemic) [Example 47, rac-tert-butyl (2-((1S*,2S*)-2-(3-chlorophenyl)cyclopropyl)-4-methoxyquinolin-7-yl)((6-cyclopropylimidazo[1,2-a]pyridin-2-yl)methyl)carbamate]: the EC50 in assay [1] was > 6500 nM.
Take `Cc1ccnc([C@H]2C[C@@H]2c2ccc3ncc(N(C)Cc4cn5cc(C6CC6)cc(N6CC(=O)N(C)C6=O)c5n4)cc3c2)n1` (racemic) [Example 17, rac-1-(6-Cyclopropyl-2-((methyl(6-((1S*,2S*)-2-(4-methylpyrimidin-2-yl)cyclopropyl)quinolin-3-yl)amino)methyl)imidazo[1,2-a]pyridin-8-yl)-3-methylimidazolidine-2,4-dione]: the EC50 in assay [1] fell in the range of 100 to 6500 nM.
For `COc1cc(OCc2cn3cc(C4CC4)cc(N4CC(=O)N(C)C4=O)c3n2)cc2nc([C@H]3C[C@@H]3c3nccc(C)n3)ccc12` (racemic) [Example 102, rac-1-(6-cyclopropyl-2-(((5-methoxy-2-((1S*,2S*)-2-(4-methylpyrimidin-2-yl)cyclopropyl)quinolin-7-yl)oxy)methyl)imidazo[1,2-a]pyridin-8-yl)-3-methylimidazolidine-2,4-dione], in assay [1], the EC50 lay within 10 to 100 nM.
Same read-out and setting: to `Cc1ccnc([C@H]2C[C@@H]2c2ncc3cnc(NCc4cn5cc(C6CC6)cc(N6CC(=O)N(C)C6=O)c5n4)cc3n2)n1` (racemic) [Example 63, rac-1-(6-cyclopropyl-2-(((2-((1S*,2S*)-2-(4-methylpyrimidin-2-yl)cyclopropyl)pyrido[4,3-d]pyrimidin-7-yl)amino)methyl)imidazo[1,2-a]pyridin-8-yl)-3-methylimidazolidine-2,4-dione] belongs 100 to 6500 nM.
Same read-out and setting: to `COc1cc([C@H]2C[C@@H]2c2nccc(C)n2)nc2cc(N3C[C@@H](O)C[C@@H]3c3cn4cc(C5CC5)ccc4n3)ccc12` (relative stereo) [Example 53, (3S,5R)-5-(6-cyclopropylimidazo[1,2-a]pyridin-2-yl)-1-(4-methoxy-2-(rac-(1S*,2S*)-2-(4-methylpyrimidin-2-yl)cyclopropyl)quinolin-7-yl)pyrrolidin-3-ol] belongs 1 to 10 nM.
